# Assay results from ChEMBL document CHEMBL3885881, “DrugMatrix”.
# Species: Rattus norvegicus
# Test: DrugMatrix - Regimen: Daily Repeat
# Format: toxicity, organism-based, Sprague-Dawley
# Set-up: regimen Daily Repeat, gender Male, age 6-8 weeks
# Conditions: in vivo, po, route oral GAVAGE, vehicle .5 % CMC; for ABSOLUTE BASOPHIL / ABSOLUTE EOSINOPHIL / ABSOLUTE LYMPHOCYTE / ABSOLUTE MONOCYTE / ABSOLUTE SEGMENTED NEUTROPHIL / BASOPHIL / EOSINOPHIL / ERYTHROCYTE COUNT / HEMATOCRIT / HEMOGLOBIN / LEUKOCYTE COUNT / LYMPHOCYTE / MEAN CORPUSCULAR HEMOGLOBIN / MEAN CORPUSCULAR HEMOGLOBIN CONCENTRATION / MEAN CORPUSCULAR VOLUME / MONOCYTE / NEUTROPHIL / NUCLEATED RED BLOOD CELLS / PLATELET COUNT: tissue Blood; for ALANINE AMINOTRANSFERASE / ALBUMIN / ALKALINE PHOSPHATASE / ASPARTATE AMINOTRANSFERASE / BLOOD UREA NITROGEN / CARBON DIOXIDE / CHLORIDE / CHOLESTEROL / CREATINE PHOSPHOKINASE / CREATININE / GLUCOSE / LACTATE DEHYDROGENASE / LIPASE / PHOSPHORUS / POTASSIUM / SODIUM / TOTAL BILIRUBIN / TOTAL PROTEIN / URIC ACID: tissue Plasma
# [1] = 0 mg/kg, 72 h, dose level Control, time 3 day
# [2] = 0 mg/kg, 120 h, dose level Control, time 5 day
# [3] = 100 mg/kg, 72 h, dose level Low, time 3 day
compound,measurement,setting,value
COC1=C(OC)C(=O)C(CCCCCCCCCCO)=C(C)C1=O [IDEBENONE],ABSOLUTE BASOPHIL,[1],0 CELLS/uL
same,ABSOLUTE EOSINOPHIL,[1],0 CELLS/uL
same,ABSOLUTE LYMPHOCYTE,[1],12191.17 CELLS/uL
same,ABSOLUTE MONOCYTE,[1],183.17 CELLS/uL
same,ABSOLUTE SEGMENTED NEUTROPHIL,[1],1192.33 CELLS/uL
same,BASOPHIL,[1],0%
same,EOSINOPHIL,[1],0%
same,ERYTHROCYTE COUNT,[1],5.51 x10E6/uL
same,HEMATOCRIT,[1],35.45%
same,HEMOGLOBIN,[1],13.82 G/DL
same,LEUKOCYTE COUNT,[1],13.57 x10E3/uL
same,LYMPHOCYTE,[1],89.83%
same,MEAN CORPUSCULAR HEMOGLOBIN,[1],25.1 pg
same,MEAN CORPUSCULAR HEMOGLOBIN CONCENTRATION,[1],38.98 G/DL
same,MEAN CORPUSCULAR VOLUME,[1],64.42 fL
same,MONOCYTE,[1],1.33%
same,NEUTROPHIL,[1],8.83%
same,NUCLEATED RED BLOOD CELLS,[1],0 /100WBC
same,PLATELET COUNT,[1],1118.17 x10E3/uL
same,ALANINE AMINOTRANSFERASE,[1],55 u/L
same,ALBUMIN,[1],4.15 G/DL
same,ALKALINE PHOSPHATASE,[1],449.5 u/L
same,ASPARTATE AMINOTRANSFERASE,[1],112.83 u/L
same,BLOOD UREA NITROGEN,[1],17.33 mg/dL
same,CARBON DIOXIDE,[1],29.5 mmol/L
same,CHLORIDE,[1],101 MEQ/L
same,CHOLESTEROL,[1],70 mg/dL
same,CREATINE PHOSPHOKINASE,[1],1325.83 u/L
same,CREATININE,[1],0.18 mg/dL
same,GLUCOSE,[1],171.5 mg/dL
same,LACTATE DEHYDROGENASE,[1],386 u/L
same,LIPASE,[1],10 u/L
same,PHOSPHORUS,[1],11.57 mg/dL
same,POTASSIUM,[1],6.21 MEQ/L
same,SODIUM,[1],141.65 MEQ/L
same,TOTAL BILIRUBIN,[1],0.15 mg/dL
same,TOTAL PROTEIN,[1],5.75 G/DL
same,URIC ACID,[1],1.28 mg/dL
same,ABSOLUTE BASOPHIL,[2],0 CELLS/uL
same,ABSOLUTE EOSINOPHIL,[2],138.17 CELLS/uL
same,ABSOLUTE LYMPHOCYTE,[2],13283.17 CELLS/uL
same,ABSOLUTE MONOCYTE,[2],303.83 CELLS/uL
same,ABSOLUTE SEGMENTED NEUTROPHIL,[2],1308.17 CELLS/uL
same,BASOPHIL,[2],0%
same,EOSINOPHIL,[2],1%
same,ERYTHROCYTE COUNT,[2],5.32 x10E6/uL
same,HEMATOCRIT,[2],33.8%
same,HEMOGLOBIN,[2],13.63 G/DL
same,LEUKOCYTE COUNT,[2],15.03 x10E3/uL
same,LYMPHOCYTE,[2],88.33%
same,MEAN CORPUSCULAR HEMOGLOBIN,[2],25.68 pg
same,MEAN CORPUSCULAR HEMOGLOBIN CONCENTRATION,[2],40.35 G/DL
same,MEAN CORPUSCULAR VOLUME,[2],63.67 fL
same,MONOCYTE,[2],1.83%
same,NEUTROPHIL,[2],8.83%
same,NUCLEATED RED BLOOD CELLS,[2],0 /100WBC
same,PLATELET COUNT,[2],1097.5 x10E3/uL
same,ALANINE AMINOTRANSFERASE,[2],54.5 u/L
same,ALBUMIN,[2],4.27 G/DL
same,ALKALINE PHOSPHATASE,[2],337 u/L
same,ASPARTATE AMINOTRANSFERASE,[2],94.67 u/L
same,BLOOD UREA NITROGEN,[2],17 mg/dL
same,CARBON DIOXIDE,[2],28.33 mmol/L
same,CHLORIDE,[2],101.5 MEQ/L
same,CHOLESTEROL,[2],71.33 mg/dL
same,CREATINE PHOSPHOKINASE,[2],628.17 u/L
same,CREATININE,[2],0.19 mg/dL
same,GLUCOSE,[2],177.83 mg/dL
same,LACTATE DEHYDROGENASE,[2],500.5 u/L
same,LIPASE,[2],9.5 u/L
same,PHOSPHORUS,[2],12.3 mg/dL
same,POTASSIUM,[2],5.63 MEQ/L
same,SODIUM,[2],143.03 MEQ/L
same,TOTAL BILIRUBIN,[2],0.2 mg/dL
same,TOTAL PROTEIN,[2],6.02 G/DL
same,URIC ACID,[2],1.5 mg/dL
same,ABSOLUTE BASOPHIL,[3],0 CELLS/uL
same,ABSOLUTE EOSINOPHIL,[3],86.67 CELLS/uL
same,ABSOLUTE LYMPHOCYTE,[3],16240.33 CELLS/uL
same,ABSOLUTE MONOCYTE,[3],104 CELLS/uL
same,ABSOLUTE SEGMENTED NEUTROPHIL,[3],1602.33 CELLS/uL
same,BASOPHIL,[3],0%
same,EOSINOPHIL,[3],0.67%
same,ERYTHROCYTE COUNT,[3],5.22 x10E6/uL
same,HEMATOCRIT,[3],32.37%
same,HEMOGLOBIN,[3],13.17 G/DL
same,LEUKOCYTE COUNT,[3],18.03 x10E3/uL
same,LYMPHOCYTE,[3],90.33%
same,MEAN CORPUSCULAR HEMOGLOBIN,[3],25.27 pg
same,MEAN CORPUSCULAR HEMOGLOBIN CONCENTRATION,[3],40.67 G/DL
same,MEAN CORPUSCULAR VOLUME,[3],62.07 fL
same,MONOCYTE,[3],0.67%
same,NEUTROPHIL,[3],8.33%
same,NUCLEATED RED BLOOD CELLS,[3],0 /100WBC
same,PLATELET COUNT,[3],1354 x10E3/uL
same,ALANINE AMINOTRANSFERASE,[3],57.67 u/L
same,ALBUMIN,[3],3.97 G/DL
same,ALKALINE PHOSPHATASE,[3],401 u/L
same,ASPARTATE AMINOTRANSFERASE,[3],105.67 u/L
same,BLOOD UREA NITROGEN,[3],17.67 mg/dL
same,CARBON DIOXIDE,[3],26.33 mmol/L
same,CHLORIDE,[3],101 MEQ/L
same,CHOLESTEROL,[3],67 mg/dL
same,CREATINE PHOSPHOKINASE,[3],961.67 u/L
same,CREATININE,[3],0.19 mg/dL
same,GLUCOSE,[3],227 mg/dL
same,LACTATE DEHYDROGENASE,[3],252 u/L
same,LIPASE,[3],9.67 u/L
same,PHOSPHORUS,[3],13.13 mg/dL
same,POTASSIUM,[3],6.02 MEQ/L
same,SODIUM,[3],142.43 MEQ/L
same,TOTAL BILIRUBIN,[3],0.2 mg/dL
same,TOTAL PROTEIN,[3],5.47 G/DL
same,URIC ACID,[3],1.67 mg/dL
